From publication PMC8954523 (Pharmaceutics, 2022)

Experiment: Dissolution and solvation thermodynamic functions (van't Hoff; solubility minus sublimation)
Format: physicochemical
Protocol: The dissolution thermodynamic parameters on the standard state were determined using mole fraction unitary units. […] Since the resulting solutions are very dilute, and their densities are very close to those of the pure solvents. The density values of the pure solvents were used in calculations (Table S1). […] The temperature dependences of the experimental solubility were treated mathematically by the van't Hoff equation, and the apparent solution enthalpies ΔHsol0 were determined as follows:(3) ∂(lnX2)/∂T=ΔHsol0/RT^2 […] Next, the apparent solution entropies ΔSsol0 were derived by the equation:(5) ΔGsol0=ΔHso[…] The solvation of one mole of the solute molecules in the solvent can be defined as the total change of the standard thermodynamic functions ( ΔGsolv0 , ΔHsolv0 , ΔSsolv0 ) of the compound upon transferring it from the gaseous phase (ideal gas; single molecules without interaction) into the solvent. The transfer process can be presented as the difference between the dissolution and sublimation thermodynamic functions by:(6) ΔYsolv0=ΔYso[…] where ΔY^0 is the standard change of any of the thermodynamic functions (ΔG^0, ΔH^0, ΔS^0) of solvation ( ΔYsolv0 ), dissolution ( ΔYsol0 ) or sublimation ( ΔYsubo ).

[1] = Table S6, n-hexane, all studied temperatures
[2] = Table S6, water, all studied temperatures

## CC(O)(CS(=O)(=O)c1ccc(F)cc1)C(=O)Nc1ccc(C#N)c(C(F)(F)F)c1 (centres unmarked) [BCL, bicalutamide]
Table S6, n-hexane, 293.15 K
  ΔGsol0: 8.222 kcal/mol
  ζTSsolv: 37.96%
Table S6, n-hexane, 298.15 K
  TΔSsol0: 3.59 kcal/mol
  ΔGsol0: 8.174 kcal/mol
  ΔSsol0: 50.70 J∙mol-1·K-1
  ζHsolv: 62.20%
  −TΔSsolv0: 10.97 kcal/mol
  −ΔSsolv0: 153.88 J∙mol-1·K-1
Table S6, n-hexane, 303.15 K
  TΔSsol0: 3.681 kcal/mol
  ΔGsol0: 8.078 kcal/mol
  ΔSsol0: 50.81 J∙mol-1·K-1
  ζTSsolv: 37.65%
  −ΔSsolv0: 150.42 J∙mol-1·K-1
Table S6, n-hexane, 308.15 K
  TΔSsol0: 3.738 kcal/mol
  ΔGsol0: 8.021 kcal/mol
  ΔSsol0: 50.75 J∙mol-1·K-1
  ζTSsolv: 37.53%
  −TΔSsolv0: 10.84 kcal/mol
  −ΔGsolv0: 7.204 kcal/mol
  −ΔSsolv0: 147.20 J∙mol-1·K-1
Table S6, n-hexane, 313.15 K
  TΔSsol0: 3.793 kcal/mol
  ΔGsol0: 7.966 kcal/mol
  ζTSsolv: 37.41%
  −TΔSsolv0: 10.79 kcal/mol
  −ΔGsolv0: 7.259 kcal/mol
Table S6, n-hexane, 318.15 K
  TΔSsol0: 3.841 kcal/mol
  ΔGsol0: 7.918 kcal/mol
  ΔSsol0: 50.50 J∙mol-1·K-1
  ζHsolv: 62.69%
  −TΔSsolv0: 10.74 kcal/mol
  −ΔGsolv0: 7.306 kcal/mol
  −ΔSsolv0: 141.22 J∙mol-1·K-1
[1]
  ΔHsol0: 11.8 kcal/mol
  −ΔHsolv0: 18 kcal/mol
Table S6, water, 293.15 K
  ζHsolv: 58.17%
Table S6, water, 298.15 K
  ζHsolv: 58.17%
  −ΔSsolv0: 211.97 J∙mol-1·K-1
Table S6, water, 303.15 K
  ζHsolv: 58.17%
Table S6, water, 308.15 K
  ζHsolv: 58.13%
  −TΔSsolv0: 15.13 kcal/mol
  −ΔGsolv0: 5.877 kcal/mol
  −ΔSsolv0: 205.45 J∙mol-1·K-1
Table S6, water, 313.15 K
  ζHsolv: 58.12%
  −TΔSsolv0: 15.14 kcal/mol
  −ΔGsolv0: 5.872 kcal/mol
[2]
  ΔHsol0: 8.8 kcal/mol
  −ΔHsolv0: 21 kcal/mol
ethanol, 298.15 K
  TΔSsol0: 3.04 kcal/mol
  ΔGsol0: 3.87 kcal/mol
  ΔHsol0: 6.91 ± 0.22 kcal/mol
  ΔSsol0: 42.6 ± 5.1 J∙mol^−1·K^−1
  ζHsolv: 66.5%
  ζTSsolv: 33.5%
  −TΔSsolv0: 11.5 kcal/mol
  −ΔGsolv0: 11.4 kcal/mol
  −ΔHsolv0: 22.9 kcal/mol
  −ΔSsolv0: 162.0 J∙mol^−1·K^−1
n-hexane, 298.15 K
  TΔSsol0: 3.59 kcal/mol
  ΔGsol0: 8.17 kcal/mol
  ΔHsol0: 11.8 ± 0.17 kcal/mol
  ΔSsol0: 50.3 ± 3.4 J∙mol^−1·K^−1
  ζHsolv: 62.1%
  ζTSsolv: 37.9%
  −TΔSsolv0: 11 kcal/mol
  −ΔGsolv0: 7.05 kcal/mol
  −ΔHsolv0: 18 kcal/mol
  −ΔSsolv0: 154.3 J∙mol^−1·K^−1
water, 298.15 K
  TΔSsol0: -0.526 kcal/mol
  ΔGsol0: 9.32 kcal/mol
  ΔHsol0: 8.8 ± 0.14 kcal/mol
  ΔSsol0: −7.4 ± 0.3 J∙mol^−1·K^−1
  ζHsolv: 58.2%
  ζTSsolv: 41.8%
  −TΔSsolv0: 15.1 kcal/mol
  −ΔGsolv0: 5.9 kcal/mol
  −ΔHsolv0: 21 kcal/mol
  −ΔSsolv0: 212.0 J∙mol^−1·K^−1
